Test results published in patent publication US9920063B2, “Melampomagnolide B derivatives” (Board of Trustees of the University of Arkansas, priority 2013, dated 2018).
Like-named read-outs stand apart in the source and are kept apart here.

Experiments:
cord blood cells = assay: Toxicity against cord blood cells; format: cell-based
AML 052308 cells [1] = assay: Antileukemic activity against AML 052308 cells in culture; settings: for Fold more potent than parthenolide: AML 052308 cells
Description: (§1) For each compound, in vitro cell culture studies were performed in which a range of concentrations (0.25-20 μM) was tested for cytotoxicity against leukemia cell lines, primary leukemia specimens and normal bone marrow controls.

AML 052308 cells [2] = test system: AML 052308 cells
Description: as §1

M9 ENL cells [3] = test system: M9 ENL cells
Description: (§2) Carbamate and carbonate derivatives of MMB were also screened for activity against M9 ENL cells at concentrations of 5, 10 and 20 μM (FIG. 10). […] Additionally, succinic amide derivatives of MMB were screened for activity against M9 ENL cells at concentrations of 5, 10 and 20 μM (FIG. 11).
(§3) Ester and amide derivatives of melampomagnolide B were screened for anti-leukemic activity against M9ENL AML cell lines (FIG. 12; FIG. 14; FIG. 15; FIG. 16). For each compound, in vitro cell culture studies were performed in which a range of concentrations (0.25-20 μM) was tested for cytotoxicity against leukemia cell lines, primary leukemia specimens and normal bone marrow controls.

[4] = test system: AML 123009 primary isolate; assay: Antileukemic activity against AML 123009 primary isolate
Description: as §1

[5] = test system: AML 100510 primary isolate; assay: Antileukemic activity against AML 100510 primary isolate
Description: as §1

M9 ENL cells [6] = assay: cells; settings: 24 h
Description: as §2, §3

What does the source list for `C=C1C(=O)O[C@H]2[C@H]1CC/C(COC(=O)/C=C/c1c[nH]c3ccccc13)=C\CC[C@@]1(C)O[C@@H]21` [BS-2-04]?
EC50 (cord blood cells): 750 nM; Fold more potent than parthenolide (AML 052308 cells [1]): 10 fold; EC50 (AML 052308 cells [1]; AML 052308 cells in culture): 720 nM; Fold more cytotoxic than MMB (AML 052308 cells [2]): about 22 fold; Antileukemic activity compared to MMB (M9 ENL cells [3]; M9 ENL cell line): good anti-leukemic activity compared to parent compound MMB; Antileukemic activity compared to MMB [4]: good anti-leukemic activity compared to parent compound MMB; Antileukemic activity compared to MMB [5]: good anti-leukemic activity compared to parent compound MMB

With `C=C1C(=O)O[C@H]2[C@H]1CC/C(COC(=O)c1ccc3cc[nH]c3c1)=C\CC[C@@]1(C)O[C@@H]21` [BS-2-05] as the compound, how does the EC50 (AML 052308 cells [1]) read?
The EC50 was 2500 nM.

And the “Fold more potent than parthenolide” value (AML 052308 cells [1])?
The value was “around 3 fold”.

What about the “Fold more cytotoxic than MMB” value (AML 052308 cells [2]) of the same compound?
The value was “around 7 fold”.

And the EC50 (M9 ENL cells [6])?
The EC50 was 2500 nM.

`C=C1C(=O)O[C@H]2[C@H]1CC/C(COC(=O)Cc1c[nH]c3ccccc13)=C\CC[C@@]1(C)O[C@@H]21` [BS-2-32] was tested. Which “Fold more potent than parthenolide” value (AML 052308 cells [1]) did it give?
The value was “around 3 fold”.

And the EC50 (AML 052308 cells [1]; AML 052308 cells in culture)?
Its EC50 is 4000 nM.

What about the “Fold more cytotoxic than MMB” value (AML 052308 cells [2]) of the same compound?
Its value is “around 7 fold”.

And the EC50 (M9 ENL cells [3]; M9ENL AML cell lines, 24 hours of drug exposure)?
The EC50 was 4000 nM.
